Test results: patent US9981916B2 (Genentech, Inc., priority 2013, dated 2018)

Target: T1, RORc ligand binding domain (Homo sapiens, UniProt P51449)
T1 construct: host or cells: E. coli
T1 sequence (P51449 269-508 limits assumed): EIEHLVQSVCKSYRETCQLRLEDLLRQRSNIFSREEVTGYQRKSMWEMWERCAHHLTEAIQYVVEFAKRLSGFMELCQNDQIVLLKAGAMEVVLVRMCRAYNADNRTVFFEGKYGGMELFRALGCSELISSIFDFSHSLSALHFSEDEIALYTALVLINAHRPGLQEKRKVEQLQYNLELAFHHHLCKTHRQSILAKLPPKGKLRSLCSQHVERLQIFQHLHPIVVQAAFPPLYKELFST
Assay: In vitro RORc ligand binding assay (25-[3H]hydroxycholesterol displacement, filter binding)
Settings: 6 nM 25-[3H]hydroxycholesterol, 0.6 ug/mL RORc receptor, 3 h at 25° C.
Outline: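 Filter-binding displacement of 6 nM 25-[3H]hydroxycholesterol from RORc receptor (0.6 ug/mL) in 50 mM HEPES pH 7.4, 150 mM NaCl, 5 mM MgCl2, 1 mM DTT, 0.01% BSA, 5% DMSO; 3 h at 25° C. NSB defined with 1 uM 25-hydroxycholesterol; scintillation counting gave Kiapp, IC50 or % inhibition (screening at 1 and 10 uM).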

Structure (SMILES) | IC50
CC1(C)[C@H]2CC[C@]1(C(=O)NC1COC1)c1nnc(-c3c(F)cccc3F)cc12 [Example 187, (5R,8R)-3-(2,6-difluorophenyl)-9,9-dimethyl-N-(oxetan-3-yl)-5,6,7,8-tetrahydro-5,8-methanocinnoline-8-carboxamide] | 2400 nM
COC1CN(C(=O)[C@@]23CC[C@@H](c4cc(-c5c(F)cccc5F)nnc42)C3(C)C)C1 [Example 188, ((5R,8R)-3-(2,6-difluorophenyl)-9,9-dimethyl-5,6,7,8-tetrahydro-5,8-methanocinnolin-8-yl)(3-methoxyazetidin-1-yl)methanone] | 2460 nM
CC(C)OC1CN(C(=O)[C@@]23CC[C@@H](c4cc(-c5c(F)cccc5F)nnc42)C3(C)C)C1 [Example 190, ((5R,8R)-3-(2,6-difluorophenyl)-9,9-dimethyl-5,6,7,8-tetrahydro-5,8-methanocinnolin-8-yl)(3-isopropoxyazetidin-1-yl)methanone] | 1840 nM
Cc1cc([C@@]23CC[C@@H](c4cc(-c5c(F)cccc5F)nnc42)C3(C)C)[nH]n1 [Example 191, (5R,8S)-3-(2,6-difluorophenyl)-9,9-dimethyl-8-(3-methyl-1H-pyrazol-5-yl)-5,6,7,8-tetrahydro-5,8-methanocinnoline] | 123 nM
Cc1nc([C@@]23CC[C@@H](c4cc(-c5c(F)cccc5F)nnc42)C3(C)C)co1 [Example 192, 4-((5R,8S)-3-(2,6-difluorophenyl)-9,9-dimethyl-5,6,7,8-tetrahydro-5,8-methanocinnolin-8-yl)-2-methyloxazole] | 202 nM
Cc1ocnc1[C@@]12CC[C@@H](c3cc(-c4c(F)cccc4F)nnc31)C2(C)C [Example 193, 4-((5R,8S)-3-(2,6-difluorophenyl)-9,9-dimethyl-5,6,7,8-tetrahydro-5,8-methanocinnolin-8-yl)-5-methyloxazole] | 68 nM
CC1(C)[C@H]2CC[C@]1(c1ccno1)c1nnc(-c3c(F)cccc3F)cc12 [Example 194, 5-((5R,8R)-3-(2,6-difluorophenyl)-9,9-dimethyl-5,6,7,8-tetrahydro-5,8-methanocinnolin-8-yl)isoxazole] | 50 nM
COc1cnc([C@@]23CC[C@@H](c4cc(-c5c(F)cccc5F)nnc42)C3(C)C)o1 [Example 195, 2-((5R,8R)-3-(2,6-difluorophenyl)-9,9-dimethyl-5,6,7,8-tetrahydro-5,8-methanocinnolin-8-yl)-5-methoxyoxazole] | 40 nM
CN(C)Cc1nnc([C@@]23CC[C@@H](c4cc(-c5c(F)cccc5F)nnc42)C3(C)C)o1 [Example 196, 1-(5-((5R,8R)-3-(2,6-difluorophenyl)-9,9-dimethyl-5,6,7,8-tetrahydro-5,8-methanocinnolin-8-yl)-1,3,4-oxadiazol-2-yl)-N,N-dimethylmethanamine] | 1890 nM
CC1(C)[C@H]2CC[C@]1(c1ccon1)c1nnc(-c3c(F)cccc3F)cc12 [Example 197, 3-((5R,8R)-3-(2,6-difluorophenyl)-9,9-dimethyl-5,6,7,8-tetrahydro-5,8-methanocinnolin-8-yl)isoxazole] | 44 nM
CC1(C)[C@H]2CC[C@]1(C(=O)N1CC(OCc3ccccc3)C1)c1nnc(-c3c(F)cccc3F)cc12 [Example 198, (3-(benzyloxy)azetidin-1-yl)((5R,8R)-3-(2,6-difluorophenyl)-9,9-dimethyl-5,6,7,8-tetrahydro-5,8-methanocinnolin-8-yl)methanone] | 3250 nM
CC1(C)[C@H]2CC[C@]1(C(=O)N1CC(O)C1)c1nnc(-c3c(F)cccc3F)cc12 [Example 199, ((5R,8R)-3-(2,6-difluorophenyl)-9,9-dimethyl-5,6,7,8-tetrahydro-5,8-methanocinnolin-8-yl)(3-hydroxyazetidin-1-yl)methanone] | 461 nM
CC1(C)[C@@H]2CC[C@@]1(I)c1nnc(-c3ccccc3F)cc12 [Example 200, (5R,8S)-3-(2-fluorophenyl)-8-iodo-9,9-dimethyl-5,6,7,8-tetrahydro-5,8-methanocinnoline] | 338 nM
CC1(C)[C@@H]2CC[C@@]1(C(=O)NC1CCC1)c1nnc(-c3c(F)cccc3F)cc12 [Example 201, (5S,8S)-N-cyclobutyl-3-(2,6-difluorophenyl)-9,9-dimethyl-5,6,7,8-tetrahydro-5,8-methanocinnoline-8-carboxamide] | 759 nM
CC1(C)[C@@H]2CC[C@@]1(C(=O)NCC1CC1)c1nnc(-c3c(F)cccc3F)cc12 [Example 202, (5S,8S)-N-(cyclopropylmethyl)-3-(2,6-difluorophenyl)-9,9-dimethyl-5,6,7,8-tetrahydro-5,8-methanocinnoline-8-carboxamide] | 193 nM
CC(=O)N(C)C1CCN(C(=O)[C@]23CC[C@H](c4cc(-c5c(F)cccc5F)nnc42)C3(C)C)C1 (stereo partly drawn) [Example 203, N-(1-((5S,8S)-3-(2,6-difluorophenyl)-9,9-dimethyl-5,6,7,8-tetrahydro-5,8-methanocinnoline-8-carbonyl)pyrrolidin-3-yl)-N-methylacetamide] | 1220 nM
CC1(C)[C@@H]2CC[C@@]1(C(=O)N1CCC[C@@H]1CO)c1nnc(-c3c(F)cccc3F)cc12 [Example 204, ((5S,8S)-3-(2,6-difluorophenyl)-9,9-dimethyl-5,6,7,8-tetrahydro-5,8-methanocinnolin-8-yl) ((R)-2-(hydroxymethyl)pyrrolidin-1-yl)methanone] | 600 nM
CC1(C)[C@@H]2CC[C@@]1(C(=O)Nc1ccc(C#N)cn1)c1nnc(-c3c(F)cccc3F)cc12 [Example 205, (5S,8S)-N-(5-cyanopyridin-2-yl)-3-(2,6-difluorophenyl)-9,9-dimethyl-5,6,7,8-tetrahydro-5,8-methanocinnoline-8-carboxamide] | 2820 nM
CC1(C)[C@@H]2CC[C@@]1(C(=O)NC1CCCC1)c1nnc(-c3c(F)cccc3F)cc12 [Example 206, (5S,8S)-N-cyclopentyl-3-(2,6-difluorophenyl)-9,9-dimethyl-5,6,7,8-tetrahydro-5,8-methanocinnoline-8-carboxamide] | 1230 nM
CC1(C)[C@@H]2CC[C@@]1(C(=O)N1CCC(F)(F)C1)c1nnc(-c3c(F)cccc3F)cc12 [Example 207, ((5S,8S)-3-(2,6-difluorophenyl)-9,9-dimethyl-5,6,7,8-tetrahydro-5,8-methanocinnolin-8-yl)(3,3-difluoropyrrolidin-1-yl)methanone] | 191 nM
CC1(C)[C@@H]2CC[C@@]1(C(=O)N1CCC(C(F)(F)F)C1)c1nnc(-c3c(F)cccc3F)cc12 (stereo partly drawn) [Example 208, ((5S,8S)-3-(2,6-difluorophenyl)-9,9-dimethyl-5,6,7,8-tetrahydro-5,8-methanocinnolin-8-yl)(3-(trifluoromethyl)pyrrolidin-1-yl)methanone] | 142 nM
CC(C)CNC(=O)[C@]12CC[C@H](c3cc(-c4c(F)cccc4F)nnc31)C2(C)C [Example 209, (5S,8S)-3-(2,6-difluorophenyl)-N-isobutyl-9,9-dimethyl-5,6,7,8-tetrahydro-5,8-methanocinnoline-8-carboxamide] | 1550 nM
CC1(C)[C@@H]2CC[C@@]1(C(=O)NCC(F)F)c1nnc(-c3c(F)cccc3F)cc12 [Example 210, (5S,8S)-N-(2,2-difluoroethyl)-3-(2,6-difluorophenyl)-9,9-dimethyl-5,6,7,8-tetrahydro-5,8-methanocinnoline-8-carboxamide] | 528 nM
CN(C)C(=O)C1CCN(C(=O)[C@]23CC[C@H](c4cc(-c5c(F)cccc5F)nnc42)C3(C)C)C1 (stereo partly drawn) [Example 211, 1-((5S,8S)-3-(2,6-difluorophenyl)-9,9-dimethyl-5,6,7,8-tetrahydro-5,8-methanocinnoline-8-carbonyl)-N,N-dimethylpyrrolidine-3-carboxamide] | 726 nM
CNC(=O)[C@@H]1[C@@H]2CN(C(=O)[C@]34CC[C@H](c5cc(-c6c(F)cccc6F)nnc53)C4(C)C)C[C@@H]21 [Example 212, (1R,5S,6R)-3-((5S,8S)-3-(2,6-difluorophenyl)-9,9-dimethyl-5,6,7,8-tetrahydro-5,8-methanocinnoline-8-carbonyl)-N-methyl-3-azabicyclo[3.1.0]hexane-6-carboxamide] | 2140 nM
COC(=O)C1CCN(C(=O)[C@]23CC[C@H](c4cc(-c5c(F)cccc5F)nnc42)C3(C)C)C1 (stereo partly drawn) [Example 213, methyl 1-((5S,8S)-3-(2,6-difluorophenyl)-9,9-dimethyl-5,6,7,8-tetrahydro-5,8-methanocinnoline-8-carbonyl)pyrrolidine-3-carboxylate] | 32 nM
CC1(C)[C@@H]2CC[C@@]1(C(=O)N1CC3CC1C3)c1nnc(-c3c(F)cccc3F)cc12 [Example 214, 2-azabicyclo[2.1.1]hexan-2-yl((5S,8S)-3-(2,6-difluorophenyl)-9,9-dimethyl-5,6,7,8-tetrahydro-5,8-methanocinnolin-8-yl)methanone] | 220 nM
CC1(C)[C@@H]2CC[C@@]1(C(=O)N1CC[C@H](CO)C1)c1nnc(-c3c(F)cccc3F)cc12 [Example 216, ((5S,8S)-3-(2,6-difluorophenyl)-9,9-dimethyl-5,6,7,8-tetrahydro-5,8-methanocinnolin-8-yl)((S)-3-(hydroxymethyl)pyrrolidin-1-yl)methanone] | 830 nM
CC1(C)[C@@H]2CC[C@@]1(C(=O)N1CC3COCC3C1)c1nnc(-c3c(F)cccc3F)cc12 (stereo partly drawn) [Example 217, ((5S,8S)-3-(2,6-difluorophenyl)-9,9-dimethyl-5,6,7,8-tetrahydro-5,8-methanocinnolin-8-yl)(tetrahydro-1H-furo[3,4-c]pyrrol-5(3H)-yl)methanone] | 144 nM
